Measurements reported in patent publication US20190185479A1, “BICYCLIC NITROGENATED HETEROCYCLIC COMPOUND” (MITSUBISHI TANABE PHARMA CORPORATION, priority 2016, published 2019).

How the values were obtained:
Assay type in all cases: biochemical
Human PDE7B (hPDE7B) = molecular target: T1, Human PDE7B (hPDE7B) (Homo sapiens, UniProt Q9NP56); experiment: Measurement of PDE7 inhibitory activity (Experimental Example 1; residual cAMP, LANCE Ultra cAMP TR-FRET); conditions: cAMP 3 nmol/L, room temperature 60 minutes
T1 construct: made in house; host or cells: COS-7 cells
T1 sequence (Q9NP56 whole entry): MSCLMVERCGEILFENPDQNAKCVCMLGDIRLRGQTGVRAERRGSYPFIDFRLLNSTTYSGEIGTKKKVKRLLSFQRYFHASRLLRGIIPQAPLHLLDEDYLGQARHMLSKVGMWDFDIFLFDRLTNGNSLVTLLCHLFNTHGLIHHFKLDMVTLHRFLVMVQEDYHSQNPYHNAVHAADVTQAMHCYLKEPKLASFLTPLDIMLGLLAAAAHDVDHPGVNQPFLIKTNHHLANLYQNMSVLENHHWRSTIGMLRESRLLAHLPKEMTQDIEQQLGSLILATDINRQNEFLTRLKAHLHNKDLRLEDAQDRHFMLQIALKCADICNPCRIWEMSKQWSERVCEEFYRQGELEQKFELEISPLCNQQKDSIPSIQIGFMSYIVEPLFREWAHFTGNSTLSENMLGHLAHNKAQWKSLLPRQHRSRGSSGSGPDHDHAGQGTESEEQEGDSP
Outline: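 hPDE7B from transfected COS-7 cells reacted with 3 nmol/L cAMP (final) and compound (2% DMSO) in 50 mmol/L Tris-HCl pH 7.5, 1 mmol/L MgCl2, 0.1% BSA, 0.5 mmol/L DTT, 60 min at room temperature. Reaction stopped with IBMX; residual cAMP measured by TR-FRET. Inhibition scaled between no-compound and no-enzyme controls.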

hPDE8B = molecular target: T2, hPDE8B (Homo sapiens, UniProt O95263); experiment: PDE8 inhibition assay (IC50), Experimental Example 3; conditions: for IC50: hPDE8B, read-out: PDE inhibition assay IC50, PDE8
T2 construct: purchased SB Drug Discovery
T2 sequence (O95263 whole entry): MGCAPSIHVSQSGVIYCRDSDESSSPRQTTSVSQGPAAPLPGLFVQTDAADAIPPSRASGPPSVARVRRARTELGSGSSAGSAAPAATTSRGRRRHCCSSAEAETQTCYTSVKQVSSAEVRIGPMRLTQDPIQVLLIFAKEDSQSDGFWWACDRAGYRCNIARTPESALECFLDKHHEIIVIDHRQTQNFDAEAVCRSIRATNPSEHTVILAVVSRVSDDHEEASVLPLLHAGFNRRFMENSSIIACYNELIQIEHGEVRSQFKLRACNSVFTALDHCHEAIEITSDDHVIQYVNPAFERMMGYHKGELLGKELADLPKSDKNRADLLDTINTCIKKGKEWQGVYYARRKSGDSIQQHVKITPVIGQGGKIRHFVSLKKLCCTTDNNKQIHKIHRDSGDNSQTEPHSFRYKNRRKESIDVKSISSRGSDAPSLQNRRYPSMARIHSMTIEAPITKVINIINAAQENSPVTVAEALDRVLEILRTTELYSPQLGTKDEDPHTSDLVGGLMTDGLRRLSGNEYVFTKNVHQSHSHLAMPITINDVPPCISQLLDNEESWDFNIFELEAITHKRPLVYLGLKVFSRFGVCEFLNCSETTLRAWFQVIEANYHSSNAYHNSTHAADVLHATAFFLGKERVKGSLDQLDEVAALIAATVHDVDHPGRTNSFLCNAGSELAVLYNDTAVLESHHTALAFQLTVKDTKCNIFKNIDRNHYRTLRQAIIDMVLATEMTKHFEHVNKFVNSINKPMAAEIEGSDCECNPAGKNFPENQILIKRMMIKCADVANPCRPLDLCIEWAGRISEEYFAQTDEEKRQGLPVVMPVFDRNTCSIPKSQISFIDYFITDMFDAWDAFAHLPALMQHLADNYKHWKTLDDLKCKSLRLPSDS
Method: (§1) PDE7 inhibitory assay was carried out by reacting the mixture of a compound, hPDE7B, and cAMP, and measuring the residual cAMP by a detection method using LANCE (registered trademark) Ultra cAMP Detection Kit (ParkinElmer). The compound was dissolved in DMSO, and diluted so that the concentration would become 50 times of the final concentration. The hPDE7B and cAMP were diluted with an assay buffer (50 mmol/L Tris-HCl, 1 mmol/L MgCl2, 0.1% BSA, 0.5 mmol/L DTT, pH7.5) so that the hPDE7B would have an appropriate enzyme activity and the concentration of cAMP would become 6 nmol/L. To a 96 well plate were added the compound (2 μL) (DMSO final concentration: 2%), hPDE7B (48 μL), and cAMP (50 μL) (concentration at the reaction: 3 nmol/L), and the resulting mixture was reacted at room temperature for 60 minutes. The reaction solution (20 μL) was subjected to a TR-FRET method according to the protocol specified by the kit to measure the concentration of the residual cAMP. In the assay, to a tracer solution specified by the kit was added 0.5 mmol/L of 3-isobutyl-1-methylxanthine (IBMX, nonselective PDE inhibitor) in order to stop the PDE enzyme reaction after the completion of reaction until the measurement.
(§2) The prediction of PDE7 selectivity was evaluated by comparing each IC50 value of a compound against PDE4, 8, and 10 with the IC50 value of said compound against PDE7B.
(§3) hPDE4D, hPDE8B, and hPDE10A were prepared by the same method as [Method for preparing samples 2].
(§4) PDE4, 8, and 10 inhibitory assays were carried out by the same method as [Assay procedure 1].
(§5) The reaction without a compound wad defined as “0% inhibition”, the reaction without each PDE was defined as “100% inhibition”, and the calculation of IC50 value was carried out by the same method as <Method for data calculation 1>.

hPDE10A = hPDE10A (Homo sapiens, UniProt Q9Y233); experiment: PDE10 inhibition assay (IC50), Experimental Example 3; conditions: for inhibition at 10 µM: read-out: inhibition rate (%) at prescribed concentration, PDE10; for IC50: hPDE10A, read-out: PDE inhibition assay IC50, PDE10
Chain of hPDE10A (Q9Y233 290-1055 limits assumed): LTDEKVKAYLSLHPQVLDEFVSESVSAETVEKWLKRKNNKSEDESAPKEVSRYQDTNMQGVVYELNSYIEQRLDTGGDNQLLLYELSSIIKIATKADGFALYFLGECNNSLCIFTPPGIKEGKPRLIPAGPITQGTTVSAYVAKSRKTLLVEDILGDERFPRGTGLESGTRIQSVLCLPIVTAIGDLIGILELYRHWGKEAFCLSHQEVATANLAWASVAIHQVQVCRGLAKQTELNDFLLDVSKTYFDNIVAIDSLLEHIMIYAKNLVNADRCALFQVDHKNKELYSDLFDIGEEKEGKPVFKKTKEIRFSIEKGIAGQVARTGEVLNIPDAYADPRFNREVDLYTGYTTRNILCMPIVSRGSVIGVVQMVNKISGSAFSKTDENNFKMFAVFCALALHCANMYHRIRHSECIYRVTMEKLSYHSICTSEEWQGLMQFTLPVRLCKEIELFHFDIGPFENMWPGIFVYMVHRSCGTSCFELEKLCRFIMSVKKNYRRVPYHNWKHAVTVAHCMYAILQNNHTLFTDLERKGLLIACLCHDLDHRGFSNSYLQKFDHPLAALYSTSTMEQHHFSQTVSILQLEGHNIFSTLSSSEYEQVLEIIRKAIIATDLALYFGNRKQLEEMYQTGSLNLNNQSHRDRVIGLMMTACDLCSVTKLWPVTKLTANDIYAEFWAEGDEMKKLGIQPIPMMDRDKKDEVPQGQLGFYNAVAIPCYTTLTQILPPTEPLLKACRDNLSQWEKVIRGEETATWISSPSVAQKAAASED
Method: as §1, §2, §3, §4, §5

hPDE4D = molecular target: T3, hPDE4D (Homo sapiens, UniProt Q08499); experiment: PDE4 inhibition assay (IC50), Experimental Example 3; conditions: for IC50: hPDE4D, read-out: PDE inhibition assay IC50, PDE4; for inhibition at 1 µM: at 1 μmol/L
T3 construct: purchased SB Drug Discovery
T3 sequence (Q08499 whole entry): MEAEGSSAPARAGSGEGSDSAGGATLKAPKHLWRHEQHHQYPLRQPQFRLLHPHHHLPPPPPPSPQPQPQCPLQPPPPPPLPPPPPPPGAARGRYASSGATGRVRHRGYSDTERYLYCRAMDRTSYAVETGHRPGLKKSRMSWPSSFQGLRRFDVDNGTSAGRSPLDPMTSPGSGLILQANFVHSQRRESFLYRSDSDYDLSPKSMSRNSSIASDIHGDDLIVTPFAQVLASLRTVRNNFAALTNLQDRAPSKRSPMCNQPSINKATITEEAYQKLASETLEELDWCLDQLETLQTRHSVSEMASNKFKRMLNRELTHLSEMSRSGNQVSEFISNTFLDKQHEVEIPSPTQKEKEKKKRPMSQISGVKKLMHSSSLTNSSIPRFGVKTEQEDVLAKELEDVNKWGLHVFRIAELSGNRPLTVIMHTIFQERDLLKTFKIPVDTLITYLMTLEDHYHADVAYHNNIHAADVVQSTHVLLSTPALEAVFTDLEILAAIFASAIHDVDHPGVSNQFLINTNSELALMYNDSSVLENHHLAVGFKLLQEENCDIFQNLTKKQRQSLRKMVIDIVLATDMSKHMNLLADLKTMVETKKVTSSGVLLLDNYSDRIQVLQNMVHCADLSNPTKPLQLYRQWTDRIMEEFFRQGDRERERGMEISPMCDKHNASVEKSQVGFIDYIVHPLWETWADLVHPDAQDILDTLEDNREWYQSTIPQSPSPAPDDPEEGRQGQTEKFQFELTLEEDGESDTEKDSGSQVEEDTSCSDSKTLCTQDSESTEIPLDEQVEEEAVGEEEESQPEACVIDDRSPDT
Method: as §1, §2, §3, §4, §5

[1] = at 1 μmol/L, read-out: inhibition rate (%) at prescribed concentration, PDE8
[2] = read-out: inhibition rate (%) at prescribed concentration, PDE4

IC50 (Human PDE7B (hPDE7B)) [nM] | IC50 (hPDE8B) [nM] | inhibition at 10 µM (hPDE10A; at 10 μmol/L) [%] | IC50 (hPDE4D) [nM] | inhibition rate (%) at prescribed concentration, PDE10 (hPDE10A; at 10 μmol/L) [% at 10] | IC50 (hPDE10A) [nM] | inhibition at 0.1 µM (hPDE8B; at 0.1 μmol/L, read-out: inhibition rate (%) at prescribed concentration, PDE8) [%] | inhibition at 0.1 µM (hPDE4D; at 0.1 μmol/L, read-out: inhibition rate (%) at prescribed concentration, PDE4) [%] | inhibition at 1 µM (hPDE8B; [1]) [%] | inhibition at 1 µM (hPDE4D; [2]) [%] | inhibition rate (%) at prescribed concentration, PDE8 (hPDE8B; at 1 μmol/L) [% at 1] | SMILES
< 10 | 290 | 49 | 2490 |  |  |  |  |  |  |  | CC1CCCC(n2nnc3c(N)ncnc32)C1 (single isomer, unassigned) [Example 196, 3-(cis-3-methylcyclohexyl)-3H-[1,2,3]triazolo[4,5-d]pyrimidin-7-amine]
30 | 6870 |  | 3840 | 29 |  |  |  |  |  |  | CC1CCCC(n2nnc3c(N)ncnc32)C1 (single isomer, unassigned) [Example 199, 3-(trans-3-methylcyclohexyl)-3H-[1,2,3]triazolo[4,5-d]pyrimidin-7-amine]
30 | 990 |  | 540 |  | 16600 |  |  |  |  |  | Nc1ncnc2c1nnn2C1CCCC(C(F)F)C1 (single isomer, unassigned) [Example 200]
14 | 1160 | 27 | 5310 |  |  |  |  |  |  |  | Nc1ncnc2c1nnn2C1CCCC(C(F)(F)F)C1 (single isomer, unassigned) [Example 202, 3-[cis-3-(trifluoromethyl)cyclohexyl]-3H-[1,2,3]triazolo[4,5-d]pyrimidin-7-amine]
< 10 | 1500 |  | 10500 |  | 10200 |  |  |  |  |  | CC1(C)CCCC(c2nnc3c(N)nccn23)C1 (single isomer, unassigned) [Example 207, 3-(3,3-dimethylcyclohexyl) [1,2,4]triazolo[4,3-a]pyrazin-8-amine]
< 10 | 3400 |  | 10300 |  | 8600 |  |  |  |  |  | Nc1nccn2c(C3CCCC4(CC4)C3)nnc12 (single isomer, unassigned) [Example 208, 3-(spiro[2,5]oct-5-yl) [1,2,4]triazolo[4,3-a]pyrazin-8-amine]
13 | 3930 |  | 5450 |  | 17700 |  |  |  |  |  | Nc1nccn2c(C3CCCC(C(F)(F)F)C3)nnc12 (single isomer, unassigned) [Example 210, 3-[cis-3-(trifluoromethyl)cyclohexyl][1,2,4]triazolo[4,3-a]pyrazin-8-amine]
60 | 17100 |  | 6400 |  | 15700 |  |  |  |  |  | CC1CC(c2nnc3c(N)nccn23)CC(F)(F)C1 (single isomer, unassigned) [Example 214]
50 | 16600 |  | 30600 |  | 37900 |  |  |  |  |  | CC1CC(c2nnc3c(N)nccn23)CC(F)(F)C1 (single isomer, unassigned) [Example 216, 3-(trans-3,3-difluoro-5-methylcyclohexyl[1,2,4]triazolo[4,3-a]pyrazin-8-amine]
80 | 2600 |  | 4100 |  | 3000 |  |  |  |  |  | Nc1nccn2c(C3CCC4CC4C3)nnc12 (single isomer, unassigned) [Example 218, 3-(bicyclo[4.1.0]hept-3-yl) [1,2,4]triazolo[4,3-a]pyrazin-8-amine]
50 | 1200 |  | 2100 |  | 4700 |  |  |  |  |  | Nc1nccn2c(C3CCC4CC4C3)nnc12 (single isomer, unassigned) [Example 219, 3-(bicyclo[4.1.0]hept-3-yl) [1,2,4]triazolo[4,3-a]pyrazin-8-amine]
60 |  |  |  |  | 4800 | 69 | 55 |  |  |  | Nc1nccn2c(C3CCC4CC4C3)nnc12 (single isomer, unassigned) [Example 221, 3-(bicyclo[4.1.0]hept-3-yl) [1,2,4]triazolo[4,3-a]pyrazin-8-amine]
80 | 10600 |  | 3240 |  | 6420 |  |  |  |  |  | CCC1CCCCN1c1nnc2c(N)nccn12 (single isomer, unassigned) [Example 222, 3-(2-ethylpiperidin-1-yl) [1,2,4]triazolo[4,3-a]pyrazin-8-amine]
10 | 4200 |  | 3600 |  | 5200 |  |  |  |  |  | CC1CC(C)CN(c2nnc3c(N)nccn23)C1 (single isomer, unassigned) [Example 226, 3-[trans-3,5-dimethylpiperidin-1-yl][1,2,4]triazolo[4,3-a]pyrazin-8-amine]
80 | 2900 |  | 4000 |  | 19600 |  |  |  |  |  | CC1CCN(c2nnc3c(N)nccn23)CC1C (single isomer, unassigned) [Example 230, 3-(3,4-dimethylpiperidin-1-yl) [1,2,4]triazolo[4,3-a]pyrazin-8-amine]
10 | 2100 |  | 3600 |  | 4800 |  |  |  |  |  | CC1CCN(c2nnc3c(N)nccn23)CC1C (single isomer, unassigned) [Example 231, 3-(3,4-dimethylpiperidin-1-yl) [1,2,4]triazolo[4,3-a]pyrazin-8-amine]
3 | 4600 |  | 1400 |  | 350 |  |  |  |  |  | CC1CCC(C)N(c2nnc3c(N)nccn23)C1 (single isomer, unassigned) [Example 232, 3-(2,5-dimethylpiperidin-1-yl) [1,2,4]triazolo[4,3-a]pyrazin-8-amine]
0.15 | 2700 |  | 6300 |  | 3200 |  |  |  |  |  | CC1CCC(C)N(c2nnc3c(N)ncc(C#N)n23)C1 (single isomer, unassigned) [Example 234, 8-amino-3-(2,5-dimethylpiperidin-1-yl) [1,2,4]triazolo[4,3-a]pyrazine-5-carbonitrile]
33 | 860 |  | 36 |  | 160 |  |  |  |  |  | CC1CCC(C)(C)CN1c1nnc2c(N)nccn12 (single isomer, unassigned) [Example 236, 3-(2,5,5-trimethylpiperidin-1-yl) [1,2,4]triazolo[4,3-a]pyrazin-8-amine]
< 10 |  |  |  |  | 1900 |  |  | 51 | 63 |  | CC1CCCCC1c1nnc2c(N)ncnn12 (single isomer, unassigned) [Example 238, 3-(cis-2-methylcyclohexyl) [1,2,4]triazolo[3,4-f][1,2,4]triazin-8-amine]
< 10 |  |  |  |  | 3100 |  |  |  | 86 | 95 | CC1CCCC(c2nnc3c(N)ncnn23)C1 (single isomer, unassigned) [Example 240, 3-(cis-3-methylcyclohexyl) [1,2,4]triazolo[3,4-f][1,2,4]triazin-8-amine]
< 10 |  |  |  |  | 2860 |  |  | 84 | 53 |  | CC1(C)CCCC(c2nnc3c(N)ncnn23)C1 (single isomer, unassigned) [Example 242, 3-(3,3-dimethylcyclohexyl) [1,2,4]triazolo[3,4-f][1,2,4]triazin-8-amine]
< 10 |  |  | 1600 |  | 52600 |  |  | 73 |  |  | Nc1ncnn2c(C3CCCC(C(F)(F)F)C3)nnc12 (single isomer, unassigned) [Example 244, 3-[cis-3-(trifluoromethyl)cyclohexyl][1,2,4]triazolo[3,4-f][1,2,4]triazin-8-amine]
